1 molecule from US20140161720A1, “TREATMENT OF ANGIOGENIC- OR VASCULAR-ASSOCIATED DISEASES” (THE GENERAL HOSPITAL CORPORATION, priority 2011, published 2014) can be followed below.

Data set [1] relates to vasculature in adult fish. Nature of the data set: Effect on vasculature in adult zebrafish. The data set is classed as in vivo. The settings on record: mature vasculature.
Data set [2] deals with MDA-MB-231 cells. Nature of the data set: Cell spreading and F-actin visualization on fibronectin (phalloidin). To be noted: 5 μM, two hours. In kind it is cell-based, human. From the text: FIGS. 1A to 1E show a schematics of an exemplary drug screen for antivascular agent described herein, e.g., dehydro-alpha-lapachone (DAL) and effects of DAL on cell adhesion properties. […] Of the 50,000 compounds screened, 86 compounds were selected to test in the secondary assays. Only compounds that made MDA-MB-231 cells more rounded, with less spreading than control cells, and interfered with actin regulation were selected for further study. All these selected small molecules were further passed through a number of filtering toxicity assays to eliminate toxic compounds. […] The non-toxic compounds were then analyzed in a zebrafish model. […]
A cell-based readout system was used for compound selection. […] As a further test of toxicity, DAL was injected intraperitoneally at 100 mg/kg in SCID mice and signs of toxicity including cachexia, ruffled fur, diarrhea, anorexia, skin ulceration, and toxic death were monitored.
A screening strategy was developed to identify potential agents that target adhesion of endothelial cells or cancer cells to their substrate. […] The initial screening step quantified the number of cells remaining attached to their wells following incubation with each compound and subsequent washing steps. […] The agents that affect cell adhesion can be monitored through remodeling of actin filaments. […] Changes in actin assembly and cell shape after treatment with 12 compounds were determined. […]

Details of data set [3]: species or system female SCID mice. To be noted: mouse, in vivo, ip, 37.5 mg/kg. The method, then:
To assess the anti-tumor effects of DAL, female SCID mice bearing orthotopic 4T1 or E0771 mammary tumors were treated with daily i.p. injections of 37.5 mg/kg DAL or saline. In order to calculate tumor volumes, the major and minor axis diameters were measured with calipers and the tumor volume was calculated by assuming a spherical shape based on the average of these two dimensions. The tumors were implanted in the mammary fat pad and allowed to grow to a starting size (small ˜100 mm^3 tumors for E0771, large ˜200 mm^3 tumors for 4T1) over ˜2 weeks. To ensure that tumors in the two groups were of similar growth rates, the treatment with saline or DAL was begun in pairs of tumors with similar sizes and growth times. Tumor volumes were measured every other day until the tumors reached an average of ˜10 mm in diameter. Tumor growth was quantified with the doubling rate, and calculated by fitting an exponential growth curve to the data for tumor size versus time.
As shown in Example 3, DAL has an antivascular effect in orthotopic mammary tumors in mice. Thus, the antitumor effect of DAL was next assessed. […] The effect of DAL on the growth of orthotopic 4T1 and E0771 mammary tumors with daily treatment of DAL or saline was evaluated (FIG. 4A). 37.5 mg/kg of DAL was used for these experiments based on the pharmacokinetics results as well as in vitro and in vivo data. […]

Data set [4] has as its system HUVEC. Nature of the data set: F-actin visualization and cell shape in HUVECs (phalloidin). The data set is classed as cell-based, human. To be noted: 10 μM, three hours. The procedure: For F-actin visualization, HUVECs were plated and treated with saline or DAL (10 μM) for three hours. After fixing and permeabilizing these cultured cells, the cells were subsequently stained with phalloidin. […] Existing cordlike structures, when exposed to 10 μM of DAL for 3 hours, were also disrupted. […] HUVEC monolayers were disrupted mechanically with a pipette tip and the migration of cells to “heal” the wound was monitored using microscopy.
To gain further insight into the anti-vascular effects of DAL and to assess the involvement of DAL in modulating actin assembly, normal human umbilical vein endothelial cells(HUVEC) were plated and treated with 10 μM DAL for three hours. The cells were fixed, permeabilized, and subsequently stained with phalloidin to visualize F-actin (FIG. 5A).

With `CC1(C)C=CC2=C(O1)C(=O)c1ccccc1C2=O` [DAL, dehydro-alpha-lapachone], the “effects on the vasculature in adult fish” value in data set [1] is “did not show any effects”. Further, the “cell spreading, size and shape on fibronectin-coated plates” value in data set [2] is “significantly smaller than control cells and had a rounded shape”. The F-actin distribution result in data set [2] (phalloidin) is given as “actin was accumulated close to the membrane”. In addition, the “weight loss or other signs of toxicity” value in data set [3] is recorded as “no weight loss or other noted signs of toxicity”. The “cell size and shape” value in data set [4] was “smaller than untreated control cells and had a rounded shape”. The F-actin organization entry in data set [4] (phalloidin) was “actin present only as small fibers and spots throughout the cells or accumulated close to the nuclei”.
